4 compounds from patent US12723063B2, “GIPR-agonist compounds” (Eli Lilly and Company, priority 2019, dated 2026) can be followed below.

*1 amine or outer side, *2 acyl side, *3 side chain or, on linkers, in order; H or OH if unused. Where a SMILES comes first, the peptide text is derived from it. Side-chain parts run from the residue outwards. [ ]: non-standard residue; d: D form. The star is where a group is joined. C20 diacid = O=C(O)CCCCCCCCCCCCCCCCCCC(=O)*; C18 diacid = O=C(O)CCCCCCCCCCCCCCCCC(=O)*; γGlu = O=C(O)[C@H](CCC(=O)[*:2])N[*:1]; 4Pal = N[C@@H](Cc1ccncc1)C(=O)O; αMeL = CC(C)C[C@](C)(N)C(=O)O; Orn = NCCC[C@H](N)C(=O)O; AEEA = NCCOCCOCC(=O)O; Aib = CC(C)(N)C(=O)O

In one experiment the target is T1, human GcgR (Homo sapiens, UniProt P47871).
T1 construct: expressed in transfected cells; crude membranes
T1 sequence (P47871 26-477): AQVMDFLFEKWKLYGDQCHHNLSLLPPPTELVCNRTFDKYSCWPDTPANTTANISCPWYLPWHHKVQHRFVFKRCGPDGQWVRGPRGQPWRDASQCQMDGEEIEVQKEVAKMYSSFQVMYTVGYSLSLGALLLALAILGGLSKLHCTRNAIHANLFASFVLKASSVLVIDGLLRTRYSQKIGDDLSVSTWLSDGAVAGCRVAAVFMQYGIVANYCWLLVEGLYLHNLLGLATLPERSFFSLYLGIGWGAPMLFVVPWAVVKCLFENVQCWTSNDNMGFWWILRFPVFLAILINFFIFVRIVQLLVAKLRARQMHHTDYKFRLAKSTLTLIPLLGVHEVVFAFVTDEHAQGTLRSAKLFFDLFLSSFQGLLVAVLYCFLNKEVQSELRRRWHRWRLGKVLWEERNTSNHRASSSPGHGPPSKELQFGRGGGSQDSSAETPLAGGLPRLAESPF
As to the kind of experiment: [125I]-Glucagon binding, SPA with WGA beads, 0.1% bacitracin. As to conditions: geometric mean, read-out: hGcgR Ki. The protocol:
(§1) Stably transfected cell lines are prepared by subcloning receptor cDNA into a pcDNA3 expression plasmid and transfected into human embryonic kidney (HEK) 293 (hGcgR and hGLP-1R) or Chinese Hamster Ovary (CHO) (hGIPR) cells followed by selection with Geneticin (hGLP-1R and hGIPR) or hygromycin B (hGcgR).
(§2) Two methods are used for the preparation of crude cell membranes.
(§3) Method 1: Frozen cell pellets are lysed on ice in hypotonic buffer containing 50 mM Tris HCl, pH 7.5, and Roche Complete™ Protease Inhibitors with EDTA. The cell suspension is disrupted using a glass Potter-Elvehjem homogenizer fitted with a Teflon® pestle for 25 strokes. The homogenate is centrifuged at 4° C. at 1100× g for 10 minutes. The supernatant is collected and stored on ice while the pellets are resuspended in homogenization buffer and rehomogenized as described above. The homogenate is centrifuged at 1100× g for 10 minutes. The second supernatant is combined with the first supernatant and centrifuged at 35000× g for 1 hour at 4° C. The resulting membrane pellet is resuspended in homogenization buffer containing protease inhibitors at approximately 1 to 3 mg/mL, quick frozen in liquid nitrogen and stored as aliquots in a −80° C. freezer until use.
(§4) Method 2: Frozen cell pellets are lysed on ice in hypotonic buffer containing 50 mM Tris HCl, pH 7.5, 1 mM MgCl2, Roche Complete™ EDTA-free Protease Inhibitors and 25 units/mL DNAse I (Invitrogen). The cell suspension is disrupted using a glass Potter-Elvehjem homogenizer fitted with a Teflon® pestle for 20 to 25 strokes. The homogenate is centrifuged at 4° C. at 1800× g for 15 minutes. The supernatant is collected and stored on ice while the pellets are resuspended in homogenization buffer (without DNAse I) and rehomogenized as described above. The homogenate is centrifuged at 1800× g for 15 minutes. The second supernatant is combined with the first supernatant and centrifuged an additional time at 1800× g for 15 minutes. The overall supernatant is then centrifuged at 25000× g for 30 minutes at 4° C. The resulting membrane pellet is resuspended in homogenization buffer (without DNAse I) containing protease inhibitors at approximately 1 to 3 mg/mL and stored as aliquots in a −80° C. freezer until use.
The human Geg receptor binding assays are performed using a Scintillation Proximity Assay (SPA) format with wheat germ agglutinin (WGA) beads (Perkin Elmer). The binding buffer contains 25 mM 4-(2-hydroxyethyl)-1-piperazineethanesulfonic acid (HEPES), pH 7.4, 2.5 mM CaCl2), 1 mM MgCl2, 0.1% (w/v) bacitracin (Research Products), 0.003% (w/v) Polyoxyethylenesorbitan monolaurate (TWEEN®-20), and Roche Complete™ Protease Inhibitors without EDTA. Peptides and Gcg are thawed and 3-fold serially diluted in 100% DMSO (10 point concentration response curves). Next, 5 μL serially diluted compound or DMSO is transferred into Corning® 3632 clear bottom assay plates containing 45 μL assay binding buffer or unlabeled Gcg control (non-specific binding or NSB, at 1 μM final). […] Plates are sealed and mixed on a plate shaker (setting 6) for 1 minute and read with a PerkinElmer Trilux MicroBeta® scintillation counter after 12 hours of incubation/settling time at room temperature.
(§5) Data are analyzed using four-parameter (curve maximum, curve minimum, IC50, Hill slope) nonlinear regression routines (Genedata Screener, version 12.0.4, Genedata AG, Basal, Switzerland). […] Values for Ki are reported as the geometric mean, with error expressed as the standard error of the mean (SEM) and n is equal to the number of independent replicates (determined in assays performed on different days). […] SEM is only calculated when […] or greater. Means are expressed as geometric means with the standard error of the mean (SEM) and the number of replicates (n) indicated in parentheses.

The target in a further experiment is T2, human GIPR (Homo sapiens, UniProt P48546).
T2 construct: expressed in transfected cells; crude membranes
T2 sequence (P48546 22-466): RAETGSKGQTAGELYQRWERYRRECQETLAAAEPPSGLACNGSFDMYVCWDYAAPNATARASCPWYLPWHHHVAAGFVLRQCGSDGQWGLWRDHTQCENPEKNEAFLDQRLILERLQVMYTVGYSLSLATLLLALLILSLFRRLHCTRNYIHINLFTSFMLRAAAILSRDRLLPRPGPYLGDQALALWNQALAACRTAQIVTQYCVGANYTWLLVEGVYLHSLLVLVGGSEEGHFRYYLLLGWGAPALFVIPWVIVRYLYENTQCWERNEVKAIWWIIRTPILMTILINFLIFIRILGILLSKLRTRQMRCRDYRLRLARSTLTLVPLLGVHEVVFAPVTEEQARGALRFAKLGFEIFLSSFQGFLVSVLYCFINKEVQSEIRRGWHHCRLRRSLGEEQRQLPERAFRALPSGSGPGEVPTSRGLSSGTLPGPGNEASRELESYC
As to the kind of experiment: [125I]-GIP binding, SPA with WGA beads, 0.1% bacitracin. As to conditions: geometric mean, read-out: hGIPR Ki. The protocol:
as §1, §2, §3, §4
The binding buffer contains 25 mM HEPES, pH 7.4, 2.5 mM CaCl2), 1 mM MgCl2, 0.1% (w/v) bacitracin, 0.003% (w/v) TWEEN®-20, and Roche Complete™ Protease Inhibitors without EDTA. […] Plates are sealed and mixed on a plate shaker (setting 6) for 1 minute and read with a PerkinElmer Trilux MicroBeta® scintillation counter after 2.5 to 12 hours of incubation/settling time at room temperature.
as §5

The target in a further experiment is T3, human GLP-1R (Homo sapiens, UniProt P43220).
T3 construct: expressed in transfected cells; crude membranes
T3 sequence (P43220 24-463): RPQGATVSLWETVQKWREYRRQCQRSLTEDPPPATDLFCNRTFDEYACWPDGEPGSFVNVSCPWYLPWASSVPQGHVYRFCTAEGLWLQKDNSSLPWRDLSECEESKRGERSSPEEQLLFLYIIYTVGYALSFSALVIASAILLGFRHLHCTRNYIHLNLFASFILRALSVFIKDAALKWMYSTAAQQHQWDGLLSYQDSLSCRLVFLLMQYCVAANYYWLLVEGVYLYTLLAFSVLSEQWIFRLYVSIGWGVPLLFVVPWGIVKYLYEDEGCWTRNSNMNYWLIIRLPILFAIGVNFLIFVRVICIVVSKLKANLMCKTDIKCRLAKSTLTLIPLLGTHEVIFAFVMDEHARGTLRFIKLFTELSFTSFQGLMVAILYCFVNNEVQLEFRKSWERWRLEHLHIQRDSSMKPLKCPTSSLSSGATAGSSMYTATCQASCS
As to the kind of experiment: [125I]-GLP-1 binding, SPA with WGA beads, 0.1% bacitracin. As to conditions: geometric mean, read-out: hGLP1R Ki. The protocol:
as §1, §2, §3, §4
The binding buffer contains 25 mM HEPES, pH 7.4, 2.5 mM CaCl2), 1 mM MgCl2, 0.1% (w/v) bacitracin, 0.003% (w/v) TWEEN®-20, and Roche Complete™ Protease Inhibitors without EDTA.
as §5

In general, Ki refers to a measure of affinity in units of concentration, obtained from inhibition or displacement. Turning to `CC[C@H](C)[C@H](NC(=O)[C@H](Cc1ccccc1)NC(=O)[C@@H](NC(=O)CNC(=O)[C@H](CCC(=O)O)NC(=O)C(C)(C)NC(=O)[C@@H](N)Cc1ccc(O)cc1)[C@@H](C)O)C(=O)N[C@@H](CO)C(=O)N[C@@H](CC(=O)O)C(=O)N[C@@H](Cc1ccc(O)cc1)C(=O)N[C@@H](CO)C(=O)N[C@H](C(=O)N[C@@](C)(CC(C)C)C(=O)N[C@@H](CC(C)C)C(=O)N[C@@H](CC(=O)O)C(=O)N[C@@H](CCCN)C(=O)N[C@@H](CCCCNC(=O)COCCOCCNC(=O)COCCOCCNC(=O)CC[C@H](NC(=O)CCCCCCCCCCCCCCCCCCC(=O)O)C(=O)O)C(=O)N[C@@H](Cc1c[nH]cn1)C(=O)N[C@@H](CCC(N)=O)C(=O)NC(C)(C)C(=O)N[C@@H](CC(=O)O)C(=O)N[C@@H](Cc1ccccc1)C(=O)N[C@H](C(=O)N[C@@H](CCC(=O)O)C(=O)N[C@@H](Cc1ccncc1)C(=O)N[C@@H](CC(C)C)C(=O)N[C@@H](CC(C)C)C(=O)N[C@@H](CCC(=O)O)C(=O)N[C@@H](CCC(N)=O)C(=O)NCC(=O)N1CCC[C@H]1C(=O)N[C@@H](CO)C(=O)N[C@@H](CO)C(=O)NCC(=O)N[C@@H](C)C(=O)N1CCC[C@H]1C(=O)N1CCC[C@H]1C(=O)N1CCC[C@H]1C(=O)N[C@@H](CO)C(N)=O)C(C)C)[C@@H](C)CC` [Example 81] (H-Y[Aib]EGTFISDYSI[αMeL]LD[Orn]K([AEEA-AEEA-γGlu-C20 diacid])HQ[Aib]DFVE[4Pal]LLEQGPSSGAPPPS-NH2), the Ki on human GcgR was determined as 699 nM; on human GIPR, 0.0374 nM; on human GLP-1R, 714 nM.
For `CC[C@H](C)[C@H](NC(=O)[C@H](CO)NC(=O)[C@H](Cc1ccc(O)cc1)NC(=O)[C@H](CC(=O)O)NC(=O)[C@H](CO)NC(=O)[C@@H](NC(=O)[C@H](Cc1ccccc1)NC(=O)[C@@H](NC(=O)CNC(=O)[C@H](CCC(=O)O)NC(=O)C(C)(C)NC(=O)[C@@H](N)Cc1ccc(O)cc1)[C@@H](C)O)[C@@H](C)CC)C(=O)N[C@@H](CC(C)C)C(=O)N[C@@H](CC(C)C)C(=O)N[C@@H](CC(=O)O)C(=O)N[C@@H](CCCCN)C(=O)N[C@@H](CCCCNC(=O)COCCOCCNC(=O)COCCOCCNC(=O)CC[C@H](NC(=O)CCCCCCCCCCCCCCCCC(=O)O)C(=O)O)C(=O)N[C@@H](Cc1c[nH]cn1)C(=O)N[C@@H](CCC(N)=O)C(=O)NC(C)(C)C(=O)N[C@@H](CC(=O)O)C(=O)N[C@@H](Cc1ccccc1)C(=O)N[C@H](C(=O)N[C@@H](CC(N)=O)C(=O)N[C@@H](Cc1ccc(O)cc1)C(=O)N[C@@H](CC(C)C)C(=O)N[C@@H](CC(C)C)C(=O)N[C@@H](C)C(=O)N[C@@H](C)C(=O)NCC(=O)N1CCC[C@H]1C(=O)N[C@@H](CO)C(=O)N[C@@H](CO)C(=O)NCC(=O)N[C@@H](C)C(=O)N1CCC[C@H]1C(=O)N1CCC[C@H]1C(=O)N1CCC[C@H]1C(=O)N[C@@H](CO)C(N)=O)C(C)C` [Example 31] (H-Y[Aib]EGTFISDYSILLDKK([AEEA-AEEA-γGlu-C18 diacid])HQ[Aib]DFVNYLLAAGPSSGAPPPS-NH2), in that order: above 959 nM, 0.0473 nM and 266 nM.
For `CC[C@H](C)[C@H](NC(=O)[C@H](CCCN)NC(=O)[C@H](CC(=O)O)NC(=O)[C@H](CC(C)C)NC(=O)[C@](C)(CC(C)C)NC(=O)[C@@H](NC(=O)[C@H](CO)NC(=O)[C@H](Cc1ccc(O)cc1)NC(=O)[C@H](CC(=O)O)NC(=O)[C@H](CO)NC(=O)[C@@H](NC(=O)[C@H](Cc1ccccc1)NC(=O)[C@@H](NC(=O)CNC(=O)[C@H](CCC(=O)O)NC(=O)C(C)(C)NC(=O)[C@@H](N)Cc1ccc(O)cc1)[C@@H](C)O)[C@@H](C)CC)[C@@H](C)CC)C(=O)N[C@@H](Cc1c[nH]cn1)C(=O)N[C@@H](CCC(N)=O)C(=O)NC(C)(C)C(=O)N[C@@H](CC(=O)O)C(=O)N[C@@H](Cc1ccccc1)C(=O)N[C@H](C(=O)N[C@@H](CCC(=O)O)C(=O)N[C@@H](Cc1ccncc1)C(=O)N[C@@H](CCCCNC(=O)COCCOCCNC(=O)COCCOCCNC(=O)CC[C@H](NC(=O)CCCCCCCCCCCCCCCCC(=O)O)C(=O)O)C(=O)N[C@@H](CC(C)C)C(=O)N[C@@H](CCC(=O)O)C(=O)NCC(=O)NCC(=O)N1CCC[C@H]1C(=O)N[C@@H](CO)C(=O)N[C@@H](CO)C(=O)NCC(=O)N[C@@H](C)C(=O)N1CCC[C@H]1C(=O)N1CCC[C@H]1C(=O)N1CCC[C@H]1C(=O)N[C@@H](CO)C(N)=O)C(C)C` [Example 111] (H-Y[Aib]EGTFISDYSI[αMeL]LD[Orn]IHQ[Aib]DFVE[4Pal]K([AEEA-AEEA-γGlu-C18 diacid])LEGGPSSGAPPPS-NH2), in that order: above 960 nM, 0.0871 nM and above 908 nM.
In the case of `CC[C@H](C)[C@H](NC(=O)[C@H](CO)NC(=O)[C@H](Cc1ccc(O)cc1)NC(=O)[C@H](CC(=O)O)NC(=O)[C@H](CO)NC(=O)[C@@H](NC(=O)[C@H](Cc1ccccc1)NC(=O)[C@@H](NC(=O)CNC(=O)[C@H](CCC(=O)O)NC(=O)[C@@H](C)NC(=O)[C@@H](N)Cc1ccc(O)cc1)[C@@H](C)O)[C@@H](C)CC)C(=O)N[C@@H](CC(C)C)C(=O)N[C@@H](CC(C)C)C(=O)N[C@@H](CC(=O)O)C(=O)N[C@@H](CCCCN)C(=O)N[C@@H](CCCCNC(=O)COCCOCCNC(=O)COCCOCCNC(=O)CC[C@H](NC(=O)CCCCCCCCCCCCCCCCC(=O)O)C(=O)O)C(=O)N[C@@H](C)C(=O)N[C@@H](CCC(N)=O)C(=O)NC(C)(C)C(=O)N[C@@H](CC(=O)O)C(=O)N[C@@H](Cc1ccccc1)C(=O)N[C@H](C(=O)N[C@@H](CC(N)=O)C(=O)N[C@@H](Cc1c[nH]c2ccccc12)C(=O)N[C@@H](CC(C)C)C(=O)N[C@@H](CC(C)C)C(=O)N[C@@H](C)C(=O)NCC(=O)NCC(=O)N1CCC[C@H]1C(=O)N[C@@H](CO)C(=O)N[C@@H](CO)C(=O)NCC(=O)N[C@@H](C)C(=O)N1CCC[C@H]1C(=O)N1CCC[C@H]1C(=O)N1CCC[C@H]1C(=O)N[C@@H](CO)C(N)=O)C(C)C` [Example 19] (H-Y[dA]EGTFISDYSILLDKK([AEEA-AEEA-γGlu-C18 diacid])AQ[Aib]DFVNWLLAGGPSSGAPPPS-NH2), the figures for the Ki on human GcgR, at human GIPR and on human GLP-1R were 335 nM, 0.0469 nM and 15.2 nM, respectively.
